From the supplement of paper PMC10307832

Assays:
Experiment in all cases: relative viability (nuclei count vs DMSO), 5 days (fraction); higher = more cells survive
Imatinib + Trametinib = compound: Cc1ccc(NC(=O)c2ccc(CN3CCN(C)CC3)cc2)cc1Nc1nccc(-c2cccnc2)n1 [Imatinib] + CC(=O)Nc1cccc(-n2c(=O)n(C3CC3)c(=O)c3c(Nc4ccc(I)cc4F)n(C)c(=O)c(C)c32)c1 [Trametinib] (partner 0.02 µM)
Summary of the method: (§1)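 Lung cancer cell lines were seeded in 1536-well plates and dosed by pin tool the next day, with either a single drug or a fixed anchor-drug dose combined with five library-drug doses (not always all listed) spaced in √10 steps. Five days later, one step fixed the cells and stained their nuclei (final 0.05% Triton X-100, 1% formaldehyde, 1 ug/ml Hoechst), and nuclei were counted on 4× images. Relative viability is the nuclei count in treated wells divided by the count in vehicle wells, and each value is the median of duplicate plates.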

Imatinib + Alpelisib = compound: Cc1ccc(NC(=O)c2ccc(CN3CCN(C)CC3)cc2)cc1Nc1nccc(-c2cccnc2)n1 [Imatinib] + Cc1nc(NC(=O)N2CCC[C@H]2C(N)=O)sc1-c1ccnc(C(C)(C)C(F)(F)F)c1 [Alpelisib] (partner 2 µM)
Summary of the method: as §1

Imatinib + Pictilisib = compound: Cc1ccc(NC(=O)c2ccc(CN3CCN(C)CC3)cc2)cc1Nc1nccc(-c2cccnc2)n1 [Imatinib] + CS(=O)(=O)N1CCN(Cc2cc3nc(-c4cccc5[nH]ncc45)nc(N4CCOCC4)c3s2)CC1 [Pictilisib] (partner 1 µM)
Summary of the method: as §1

Imatinib + Crizotinib = compound: Cc1ccc(NC(=O)c2ccc(CN3CCN(C)CC3)cc2)cc1Nc1nccc(-c2cccnc2)n1 [Imatinib] + C[C@@H](Oc1cc(-c2cnn(C3CCNCC3)c2)cnc1N)c1c(Cl)ccc(F)c1Cl [Crizotinib] (partner 1 µM)
Summary of the method: as §1

| Cell Line | relative viability (Imatinib + Trametinib; first compound 0.02 µM) | relative viability (Imatinib + Trametinib; first compound 0.06325 µM) | relative viability (Imatinib + Trametinib; first compound 0.2 µM) | relative viability (Imatinib + Trametinib; first compound 0.6325 µM) | relative viability (Imatinib + Trametinib; first compound 2 µM) | relative viability (Imatinib + Alpelisib; first compound 0.02 µM) | relative viability (Imatinib + Alpelisib; first compound 0.06325 µM) | relative viability (Imatinib + Alpelisib; first compound 0.2 µM) | relative viability (Imatinib + Alpelisib; first compound 0.6325 µM) | relative viability (Imatinib + Alpelisib; first compound 2 µM) | relative viability (Imatinib + Pictilisib; first compound 0.02 µM) | relative viability (Imatinib + Pictilisib; first compound 0.06325 µM) | relative viability (Imatinib + Pictilisib; first compound 0.2 µM) | relative viability (Imatinib + Pictilisib; first compound 0.6325 µM) | relative viability (Imatinib + Pictilisib; first compound 2 µM) | relative viability (Imatinib + Crizotinib; first compound 0.02 µM) | relative viability (Imatinib + Crizotinib; first compound 0.06325 µM) | relative viability (Imatinib + Crizotinib; first compound 0.2 µM) | relative viability (Imatinib + Crizotinib; first compound 0.6325 µM) | relative viability (Imatinib + Crizotinib; first compound 2 µM) |
| --- | --- | --- | --- | --- | --- | --- | --- | --- | --- | --- | --- | --- | --- | --- | --- | --- | --- | --- | --- | --- |
| NCI-H460 | 0.142 | 0.102 | 0.199 | 0.125 | 0.21 | 0.632 | 0.818 | 0.667 | 0.532 | 0.465 | 0.465 | 0.277 | 0.335 | 0.506 | 0.3 | 1.29 | 1.38 | 1.55 | 0.881 | 0.85 |
| 201T | 0.694 | 0.697 | 0.738 | 0.681 | 0.7 | 1.03 | – | 1.07 | 1.02 | 0.993 | 0.711 | – | 0.664 | 0.729 | 0.679 | – | – | 1.09 | 0.993 | 1.02 |
| NCI-H1755 | 0.793 | 0.811 | 0.839 | 0.782 | 0.725 | 1.09 | 1.04 | 1.13 | 0.949 | 0.981 | 0.457 | 0.348 | 0.531 | 0.495 | 0.473 | 1.08 | 1.12 | 1.06 | 0.808 | 0.794 |
| NCI-H1355 | 0.494 | – | 0.436 | – | 0.411 | 0.855 | – | 0.834 | 0.889 | 0.882 | 0.432 | – | 0.434 | 0.468 | 0.536 | 1.13 | – | 1.21 | 1.03 | 1.15 |
| HCC-78 | 0.837 | 0.613 | 0.9 | 0.755 | 0.881 | 0.319 | 0.381 | 0.367 | 0.347 | 0.348 | 0.208 | 0.177 | 0.198 | 0.207 | 0.2 | 0.334 | 0.344 | 0.36 | 0.314 | 0.322 |
| EKVX | 0.376 | – | 0.295 | 0.325 | – | 0.967 | 0.883 | 0.89 | 0.835 | 1.01 | 0.419 | 0.343 | 0.475 | 0.528 | 0.508 | 0.937 | 0.861 | 1.08 | 0.886 | – |
| BEN | 1.09 | 1.02 | 1.05 | 1.1 | 1.1 | 1.1 | 0.785 | 0.93 | 1.05 | 1.03 | 0.609 | 0.383 | 0.619 | 0.491 | 0.673 | 1.04 | 0.847 | 1 | 0.762 | 0.93 |
| HARA | 0.583 | 0.574 | 0.633 | 0.467 | 0.727 | 1 | 0.501 | 0.822 | 0.697 | 0.804 | 0.42 | 0.406 | 0.389 | 0.363 | 0.339 | 1.15 | 1.09 | 1.22 | 1.05 | 1.08 |
| HCC-15 | 0.399 | – | 0.411 | 0.406 | 0.359 | – | 0.853 | 0.883 | 0.814 | 0.885 | 0.719 | 0.324 | 0.777 | 0.809 | 0.698 | 0.683 | 0.779 | 0.9 | 0.792 | 0.817 |
| NCI-H2009 | 0.319 | 0.214 | 0.255 | 0.296 | 0.246 | 1.18 | 1.24 | 1.26 | 1.21 | 1.13 | 0.809 | 0.429 | 0.909 | 0.878 | 0.896 | 1.09 | 1.23 | 0.975 | 1.02 | 1.04 |
| NCI-H23 | 0.389 | 0.393 | 0.376 | 0.371 | 0.379 | 0.751 | – | 0.866 | 0.731 | 0.58 | 0.582 | 0.547 | 0.541 | 0.446 | 0.494 | 0.573 | 0.712 | 0.584 | 0.374 | 0.398 |
| NCI-H838 | 0.504 | 0.549 | 0.608 | 0.569 | 0.486 | 1.02 | 1.06 | 1.12 | 1.06 | 1.04 | 0.447 | 0.55 | 0.519 | 0.465 | 0.499 | 0.956 | 1.25 | – | 0.736 | 0.931 |
| NCI-H358 | 0.14 | 0.143 | 0.129 | 0.139 | 0.121 | 0.799 | – | 0.841 | 0.759 | 0.868 | 0.292 | – | 0.326 | 0.275 | 0.347 | 0.616 | – | 0.571 | 0.555 | 0.616 |
| NCI-H1666 | 0.82 | 0.855 | 0.823 | 1.09 | 0.924 | 1.04 | 1.05 | 1.09 | 1.34 | 0.887 | 0.327 | 0.406 | 0.381 | 0.48 | 0.393 | 1.02 | 1.09 | 0.991 | 1.14 | 0.966 |
| NCI-H2023 | 0.729 | 0.6 | 0.564 | – | 0.618 | 0.633 | 0.728 | 0.653 | 0.577 | 0.586 | 0.247 | 0.191 | 0.224 | 0.213 | 0.217 | 0.61 | 0.708 | 0.715 | 0.616 | 0.706 |
| NCI-H2087 | 0.179 | – | 0.221 | 0.189 | – | 0.975 | 1.19 | 1.23 | 0.96 | 1.05 | 1.13 | 0.44 | 0.796 | – | 0.858 | 0.894 | 0.983 | 0.943 | 0.941 | 0.718 |
| NCI-H2405 | 0.623 | 0.538 | 0.637 | 0.516 | 0.634 | 0.922 | – | 0.823 | 0.643 | 0.95 | 0.482 | – | 0.428 | 0.353 | 0.52 | 0.917 | 0.879 | 0.827 | 0.772 | 0.843 |
